Values after ≈ are worked out from the molar mass of the structure shown.
How the values were obtained:
[1] = tested on: dopamine oxidation accelerated in the presence of Fe^3+; experiment: Suppression test of dopamine oxidation accelerated in presence of iron ions; type: biochemical; conditions: dopamine 2 mmol/L, Fe^3+ 2 mmol/L, hydrogen peroxide 1 moL/L, 0.2 M phosphate buffer pH 6.5, 25° C., 6 to 9 hours
Description: For a test, dopamine hydrochloride (DA·HCl), iron(III) nitrate 9-hydrate (Fe(NO3)3·9H2O) as Fe^3+ source, hydrogen peroxide solution as oxidant, glutathione trisulfide 2-hydrate, lipoic acid trisulfide, pantethine trisulfide, or N,N′-diacetyl-L-cysteine trisulfide as trisulfide compound were used.
A method of preparing each substance is as follows. • 10 mM DA-HCl aqueous solution: prepared by dissolving DA·HCl in purified water. • 20 mM Fe^3+ solution: prepared by dissolving Fe(NO3)3·9H2O in 5 mmol/L H2SO4. • 40 mM glutathione trisulfide solution: prepared by dissolving glutathione trisulfide 2-hydrate in 0.2 mol/L phosphate buffer solution (pH=6.5). • 40 mM lipoic acid trisulfide solution: prepared by dissolving lipoic acid trisulfide in 0.2 mol/L phosphate buffer solution (pH=6.5). • 400 mM pantethine trisulfide solution: prepared by dissolving pantethine trisulfide in 0.2 mol/L phosphate buffer solution (pH==6.5). • 40 mM N,N′-diacetyl-L-cysteine trisulfide: prepared by dissolving N,N′-diacetyl-L-cysteine trisulfide in 0.2 mol/L phosphate buffer solution (pH=6.5).
The pre-prepared preparation solution of each substance (mentioned above) and 0.2 M phosphate buffer solution (pH=6.5) were mixed in a 50 mL or 5 mL test tube to prepare 20 mL or 2 mL reaction solution so that each substance has the following concentration in the reaction solution. • Dopamine: 2 mmol/L • Fe^3+: 2 mmol/L • Hydrogen peroxide: 1 moL/L • Glutathione trisulfide: 3 concentrations (5, 10 or 20 mmol/L) • Lipoic acid trisulfide: 2 concentrations (10 or 20 mmol/L) • Pantethine trisulfide: 3 concentrations (100, 150 or 200 mmol/L) • N,N′-diacetyl-L-cysteine trisulfide: 3 concentrations (5, 10 or 20 mmol/L)
The reaction solution was stirred at 25° C., 500 rpm for 6 to 9 hours. The dopamine concentration in the reaction solution was quantified with high performance liquid chromatography (HPLC).
The conditions for HPLC is as follows. • Detector: Ultraviolet absorptiometer (measuring wavelength: 280 nm) • Column: Inertsil ODS-2 (4.6 mm I.D.×150 mm, 5 μm) • Column temperature: constant temperature around 35° C. • Mobile phase: prepared by adding 0.2 mol/L citric acid aqueous solution to 0.2 mol/L disodium hydrogenphosphate aqueous solution to adjust to pH 3.0. • Flow rate: 0.7 mL/min • Amount infused: 20 μL • Area measurement range: for 30 minutes after infusion of sample solution Preparation of sample solution: prepared by diluting 100 μL reaction solution 10-fold with water to form sample solution • Retention time: Dopamine (DA) approximately 7 minutes

[2] = Solubility in water at 20° C.; type: physicochemical; conditions: free lipoic acid trisulfide

In the case of `O=C(O)CCCCC1CCSSS1` (racemic) [lipoic acid trisulfide], the “suppression of dopamine oxidation in the presence of Fe^3+ (dopamine concentration by HPLC, FIG. 2)” value ([1]; lipoic acid trisulfide 10 or 20 mmol/L) is reported as “suppressed the dopamine oxidation”.
In the case of `N[C@@H](CCC(=O)N[C@@H](CSSSC[C@H](NC(=O)CC[C@H](N)C(=O)O)C(=O)NCC(=O)O)C(=O)NCC(=O)O)C(=O)O` [Glutathione trisulfide, glutathione trisulfide], the “suppression of dopamine oxidation in the presence of Fe^3+ (dopamine concentration by HPLC, FIG. 1)” value ([1]; glutathione trisulfide 5, 10 or 20 mmol/L) is reported as “suppressed the dopamine oxidation”.
`O=C(O)CCCC[C@@H]1CCSSS1` [Lipoic acid trisulfide R body, (R)-lipoic acid trisulfide] showed a solubility [2] of 300 µg/mL (≈ 1260 µM).
With `CC(=O)N[C@@H](CSSSC[C@H](NC(C)=O)C(=O)O)C(=O)O` [N,N′-diacetyl-L-cysteine trisulfide] the “suppression of dopamine oxidation in the presence of Fe^3+ (dopamine concentration by HPLC, FIG. 4)” value ([1]; N,N′-diacetyl-L-cysteine trisulfide 5, 10 or 20 mmol/L) was “suppressed the dopamine oxidation”.
With `CC(C)(CO)[C@@H](O)C(=O)NCCC(=O)NCCSSSCCNC(=O)CCNC(=O)[C@H](O)C(C)(C)CO` [pantethine trisulfide] the “suppression of dopamine oxidation in the presence of Fe^3+ (dopamine concentration by HPLC, FIG. 3)” value ([1]; pantethine trisulfide 100, 150 or 200 mmol/L) was “suppressed the dopamine oxidation”.

From patent publication US20240293359A1, “PROPHYLACTIC OR THERAPEUTIC DRUG FOR PARKINSON'S DISEASE” (Kyowa Pharma Chemical Co., Ltd., priority 2021, published 2024)
